Assay results as given in paper PMC9953468, “In Silico, In Vitro, and Ex Vivo Biological Activity of Some Novel Mebeverine Precursors” (Biomedicines, 2023).
Like-named read-outs stand apart in the source and are kept apart here.

Assays:
[1] = system: Pseudomonas aeruginosa ATCC 9027; experiment: Antimicrobial activity, agar well diffusion method; type: cell-based; conditions: Dose 0.6 mg/disk, dwell = 6 mm
From the text: (§1) Eighteen tested microorganisms including five Gram-positive bacteria (Bacillus subtilis ATCC 6633, Bacillus amyloliquefaciens 4BCL-YT, Staphylococcus aureus ATCC 25923, Listeria monocytogenes NBIMCC 8632, Enterococcus faecalis ATCC 19433), five Gram-negative bacteria (Salmonella enteritidis ATCC 13076, Klebsiella sp.—clinical isolate, Escherichia coli ATCC 25922, Proteus vulgaris ATCC 6380, Pseudomonas aeruginosa ATCC 9027), two yeasts (Candida albicans NBIMCC 74, Saccharomyces cerevisiae ATCC 9763) and six fungi (Aspergillus niger ATCC 1015, Aspergillus flavus, Penicillium sp., Rhizopus sp., Mucor sp.—plant isolates, Fusarium moniliforme ATCC 38932) from the collection of the Department of Microbiology at the University of Food Technologies—Plovdiv, Bulgaria, were selected for the antimicrobial activity test.
(§2) The antimicrobial activity of the samples was determined by the agar well diffusion method. The tested bacteria B. subtilis and B. amyloliquefaciens were cultured on LBG agar at 30 °C. The test bacteria S. aureus, L. monocytogenes, E. faecalis, S. enteritidis, Klebsiella sp., E. coli, P. vulgaris and P. aeruginosa were cultured on LBG agar at 37 °C for 24 h. The yeast C. albicans was cultured on MEA at 37 °C, while S. cerevisiae was cultured on MEA at 30 °C for 24 h. The fungi A. niger, A. flavus, Penicillium sp., Rhizopus sp., Mucor sp., and F. moniliforme were grown on MEA at 30 °C for 7 days or until sporulation.
(§3) The inocula of the tested bacteria/yeasts were prepared by homogenization of a small amount of biomass in 5 mL of sterile 0.5% NaCl. The inocula of tested fungi were prepared by the addition of 5 mL of sterile 0.5% NaCl into the tubes. After stirring by vortex V-1 plus (Biosan), they were filtered and replaced in other tubes before use. The number of viable cells and fungal spores was determined using a bacterial counting chamber Thoma (Poly-Optik, GmbH, Bad Blankenburg, Germany). Their final concentrations were adjusted to 10^8 cfu/mL for bacterial/yeast cells and 10^5 cfu/mL for fungal spores and then inoculated in preliminarily melted and tempered at 45–48 °C LBG/MEA agar media. Next, the inoculated media were transferred in a quantity of 18 mL in sterile Petri plates (d = 90 mm) (Gosselin™, Hazebrouck, France) and allowed to harden. Then, six wells (d = 6 mm) per plate were cut, and triplicates of 60 μL of each extract were pipetted into the agar wells. The Petri plates were incubated in identical conditions.
(§4) The antimicrobial activity was determined by measuring the diameter of the inhibition zones around the wells on the 24th and 48th h of incubation. […]

Saccharomyces cerevisiae = experiment: Antimicrobial activity, agar well diffusion method; type: cell-based; conditions: Dose 0.6 mg/disk, dwell = 6 mm
From the text: as §1, §2, §3, §4

Klebsiella sp. = experiment: Antimicrobial activity, agar well diffusion method; type: cell-based; conditions: Dose 0.6 mg/disk, dwell = 6 mm
From the text: as §1, §2, §3, §4

[2] = system: Eighteen tested microorganisms (Gram-positive bacteria, Gram-negative bacteria, yeasts, fungi); experiment: Antimicrobial activity, agar well diffusion method, whole panel; type: cell-based; conditions: whole panel of tested microorganisms, in words
From the text: as §1, §2
The inocula of the tested bacteria/yeasts were prepared by homogenization of a small amount of biomass in 5 mL of sterile 0.5% NaCl. […] The number of viable cells and fungal spores was determined using a bacterial counting chamber Thoma (Poly-Optik, GmbH, Bad Blankenburg, Germany). […] Next, the inoculated media were transferred in a quantity of 18 mL in sterile Petri plates (d = 90 mm) (Gosselin™, Hazebrouck, France) and allowed to harden. […]
as §4

MTT cell viability assay [3] = type: cell-based, human; conditions: human, ± SD, read-out: In vitro cytotoxicity (IC50)
Procedure: (§5) In order to evaluate the in vitro biocompatibility of the experimental compounds, a series of cell viability assays were performed against human malignant leukemic cell lines (LAMA-84, K-562) as well as normal murine fibroblast cells (CCL-1). All cell lines were purchased from the German Collection of Microorganisms and Cell Cultures (DSMZ GmbH, Braunschweig, Germany). Cell cultures were cultivated in a growth medium RPMI 1640 supplemented with 10% fetal bovine serum (FBS), 5% L-glutamine, and incubated under standard conditions of 37 °C and 5% humidified CO2 atmosphere.
(§6) The experimental design involved a number of cytotoxicity assays that measured cell growth inhibition by the newly synthesized compounds. Cell viability was evaluated using a standard MTT-based colorimetric assay. Exponential-phased cells were harvested and seeded (100 μL/well) in 96-well plates at the appropriate density (3 × 10^5) for the suspension cultures (LAMA-84 and K-562) and 1.5 × 10^5 for the adherent one (CCL-1). Cells were treated and incubated with various concentrations of the experimental compounds in the concentration range of 400-6.25 µM. After exposure time of 72 h, a filter-sterilized MTT substrate solution (5 mg/mL in PBS) was added to each well of the culture plate. A further 1–4 h incubation allowed for the formation of purple insoluble formazan precipitates. The latter were dissolved in isopropyl alcohol solution containing 5% formic acid prior to absorbance measurement at 550 nm using a microplate reader (Labexim LMR-1). Collected absorbance values were blanked against MTT and isopropanol solution and normalized to the mean value of the untreated control (100% cell viability). Semi-logarithmic “dose–response” curves were constructed and the half-inhibitory concentrations of the screened compounds against each tested cell line were calculated. Values of p ≤ 0.05 were considered statistically significant.

MTT cell viability assay [4] = type: cell-based; conditions: mouse, CCL-1, normal murine fibroblast cells, read-out: In vitro cytotoxicity (IC50)
Procedure: as §5, §6

[5] = system: Escherichia coli ATCC 25922; experiment: Antimicrobial activity, agar well diffusion method; type: cell-based; conditions: Dose 0.6 mg/disk, dwell = 6 mm
From the text: as §1, §2, §3, §4

[6] = LAMA-84, CML in blast crisis (bcr-abl+)

In the case of `CC(C)C(N)Cc1ccccc1` (stereo not drawn) [Compound 3, 3-Methyl-1-phenylbutan-2-amine], the “Inhibition Zones” value [1] is reported as 9 mm, the “Inhibition Zones” value (Saccharomyces cerevisiae) is reported as 8 mm and the “Inhibition Zones” value (Klebsiella sp.) is reported as 8 mm. For the same compound, the antimicrobial activity [2] was “only modest activity against Gram-negative bacteria”, the IC50 at 72 h (MTT cell viability assay [3]; K-562, Blast phase CML (bcr-abl+)) was 250 ± 10.5 µM and the IC50 at 72 h (MTT cell viability assay [3]; [6]) was 239 ± 18.2 µM. The IC50 at 72 h (MTT cell viability assay [4]) was over 300 µM.

In the case of `CC(=O)NC(Cc1ccccc1)C(C)C` (stereo not drawn) [Compound 4a, N-(3-methyl-1-phenylbutan-2-yl)acetamide], the “Inhibition Zones” value [5] is reported as 8 mm, the antimicrobial activity [2] is reported as “inhibited only the growth of Escherichia coli” and the IC50 at 72 h (MTT cell viability assay [3]; K-562 cells (blast phase chronic myeloid leukemia), K-562, Blast phase CML (bcr-abl+)) is reported as 276 ± 19.7 µM. For the same compound, the IC50 at 72 h (MTT cell viability assay [3]; [6]) was 360 ± 11 µM and the IC50 at 72 h (MTT cell viability assay [4]; CCL-1 normal fibroblast cells) was over 300 µM.
